Laboratory results as given in ChEMBL document CHEMBL1909515, “Discovery of a new type inhibitor of human glyoxalase I by myricetin-based 4-point pharmacophore” (Bioorg Med Chem Lett, 2011).
Calls of active or inactive are those of the source. No cut-off for these calls is given here.

What was measured:
[1] = test system: HL-60; test: Antiproliferative activity against human HL60 cells at 300 uM; format: functional, cell-based
[2] = target: T1, Lactoylglutathione lyase (Homo sapiens, UniProt Q04760); test: Inhibition of recombinant human His-tagged glyoxalase 1 expressed in Escherichia coli BL21 assessed as formation of S-D-lactoylglutathione after 5 mins by spectrophotometric method
Target sequence in this assay (Q04760 whole entry): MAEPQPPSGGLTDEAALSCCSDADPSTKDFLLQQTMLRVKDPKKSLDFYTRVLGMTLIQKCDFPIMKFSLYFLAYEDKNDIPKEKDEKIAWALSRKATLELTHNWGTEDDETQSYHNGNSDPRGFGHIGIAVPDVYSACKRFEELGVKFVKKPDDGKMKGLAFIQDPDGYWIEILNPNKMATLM

[3] = test system: HL-60; test: induction of apoptosis in human HL60 cells at 300 uM; format: functional, cell-based
[4] = target: T1, Lactoylglutathione lyase; test: Inhibition of human recombinant His-tagged glyoxalase 1 expressed in Escherichia coli BL21 assessed as formation of S-D-lactoylglutathione at 100 uM after 5 mins by spectrophotometric method
Target sequence in this assay (Q04760 2-184 limits assumed): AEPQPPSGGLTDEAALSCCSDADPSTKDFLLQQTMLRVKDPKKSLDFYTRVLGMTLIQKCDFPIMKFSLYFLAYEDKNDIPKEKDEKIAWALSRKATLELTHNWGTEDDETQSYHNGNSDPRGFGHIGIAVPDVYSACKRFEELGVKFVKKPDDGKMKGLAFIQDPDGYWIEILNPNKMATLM

| IC50 [2] [µM] | inhibition [4] | SMILES | Activity [1] | Activity [3] |
| --- | --- | --- | --- | --- |
| 2 | Active | COc1ccc(/C=C(/CC(=O)O)c2nc3ccccc3s2)cc1 | Active | Active |
| 54.6 | Active | COc1ccc(C(=O)Nc2sc3c(c2C(=O)O)CCCC3)cc1 | – | – |
| 93.2 | Active | COc1ccc(C(=O)Nc2ccccc2C(=O)O)cc1 | – | – |
